{"source": "patent US20100227313A1", "about": "“Methods and Compositions for Determining Altered Susceptibility of HIV-1 to Protease Inhibitor Treatment” (priority 2007, published 2010)", "test_system": "HIV-1", "experiment": "Resistance test vector (PHENOSENSE) phenotypic susceptibility assay, fold change in IC50, correlated with genotype (Fisher's Exact test, odds ratio)", "type": "cell-based, human immunodeficiency virus type 1", "conditions": "for Odds Ratio: reduced susceptibility (FC>2)", "from_the_text": "See Petropoulos et al., 2000, Antimicrob. Agents Chemother. 44:920-928; U.S. Pat. Nos. 5,837,464 and 6,242,187. PHENOSENSE™ is a phenotypic assay that achieves the benefits of phenotypic testing and overcomes the drawbacks of previous assays.\nPHENOSENSE™ can obtain results with only one round of viral replication, thereby avoiding selection of subpopulations of virus that can occur during preparation of viral stocks required for assays that rely on fully infectious virus.\nA resistance test vector (“RTV”) can then be constructed by incorporating the amplified viral gene sequences into a replication defective viral vector by using any method known in the art of incorporating gene sequences into a vector. In one embodiment, restrictions enzymes and conventional cloning methods are used. See Sambrook et al., 2001, Molecular Cloning: A Laboratory Manual, Cold Spring Harbor Laboratory, 3rd ed., NY; and Ausubel et al., 1989, Current Protocols in Molecular Biology, Greene Publishing Associates and Wiley Interscience, NY. In a preferred embodiment, ApaI and PinAI restriction enzymes are used. Preferably, the replication defective viral vector is the indicator gene viral vector (“IGVV”). In a preferred embodiment, the viral vector contains a means for detecting replication of the RTV. Preferably, the viral vector contains a luciferase expression cassette.\nThe assay can be performed by first co-transfecting host cells with RTV DNA and a plasmid that expresses the envelope proteins of another retrovirus, for example, amphotropic murine leukemia virus (MLV). Following transfection, viral particles can be harvested from the cell culture and used to infect fresh target cells in the presence of varying amounts of anti-viral drug(s). The completion of a single round of viral replication in the fresh target cells can be detected by the means for detecting replication contained in the vector. In a preferred embodiment, the completion of a single round of viral replication results in the production of luciferase. By monitoring the amount of, e.g., luciferase activity in the presence of the varying amounts of antiviral drug(s), a resistance curve can be constructed by plotting luciferase activity versus drug concentration. The susceptibility of an HIV, or population of HIV, can be determined by measuring the concentration of antiviral drug at which the luciferase activity detected is half-maximal. This number, the IC50, provides a standard and convenient measure of drug resistance.\nPatient derived segment(s) corresponding to the HIV protease and reverse transcriptase coding regions were amplified by the reverse transcription polymerase chain reaction method (RT PCR) using viral RNA isolated from viral particles present in the plasma or serum of HIV infected individuals as follows. Viral RNA was isolated from the plasma or serum using oligo-dT magnetic beads (Dynal Biotech, Oslo, Norway), followed by washing and elution of viral RNA. The RT PCR protocol was divided into two steps. A retroviral reverse transcriptase (e.g. Moloney MuLV reverse transcriptase (Roche Molecular Systems, Inc., Branchburg, N.J.; Invitrogen, Carlsbad, Calif.), or avian myeloblastosis virus (AMV) reverse transcriptase, (Boehringer Mannheim, Indianapolis, Ind.) was used to copy viral RNA into cDNA. The cDNA was then amplified using a thermostable DNA polymerase (e.g. Taq (Roche Molecular Systems, Inc., Branchburg, N.J.), Tth (Roche Molecular Systems, Inc., Branchburg, N.J.), PRIMEZYME™ (isolated from Thermus brockianus, Biometra, Gottingen, Germany)) or a combination of thermostable polymerases as described for the performance of “long PCR” (Barnes, W.M., 1994, Proc. Natl. Acad. Sci, USA 91, 2216 20) (e.g. Expand High Fidelity PCR System (Taq+Pwo), (Boehringer Mannheim. Indianapolis, Ind.); GENEAMP XL™ PCR kit (Tth+Vent), (Roche Molecular Systems, Inc., Branchburg, N.J.); or […] II®, Clontech, Palo Alto, Calif.)", "data": [{"smiles": "CC(C)CN(C[C@@H](O)[C@H](Cc1ccccc1)NC(=O)O[C@H]1CCOC1)S(=O)(=O)c1ccc(N)cc1", "note": "[APV, amprenavir]", "values": [{"measurement": "correlation of FC in susceptibility with the FC in susceptibility for DRV", "setting": "2862 clinical samples, FC relative to wild-type (NL4-3), FIG. 1", "value": "tightly correlated"}, {"measurement": "Odds Ratio", "setting": "mutation A22V in PR", "value": 4.43}, {"measurement": "Odds Ratio", "setting": "mutation A71I in PR", "value": 1.93}, {"measurement": "Odds Ratio", "setting": "mutation A71V in PR", "value": 1.62}, {"measurement": "Odds Ratio", "setting": "mutation A431I in gag", "value": 21.52}, {"measurement": "Odds Ratio", "setting": "mutation A431V in gag", "value": 3.21}, {"measurement": "Odds Ratio", "setting": "mutation C67F in PR", "value": 9.28}, {"measurement": "Odds Ratio", "setting": "mutation C95F in PR", "value": 4.96}, {"measurement": "Odds Ratio", "setting": "mutation D60E in PR", "value": 1.51}, {"measurement": "Odds Ratio", "setting": "mutation E34Q in PR", "value": 4.54}, {"measurement": "Odds Ratio", "setting": "mutation E35D in PR", "value": 1.27}, {"measurement": "Odds Ratio", "setting": "mutation E35N in PR", "value": 10.13}, {"measurement": "Odds Ratio", "setting": "mutation E428D in gag", "value": 1.94}, {"measurement": "Odds Ratio", "setting": "mutation E467K in gag", "value": 2.39}, {"measurement": "Odds Ratio", "setting": "mutation E468K in gag", "value": 2.98}, {"measurement": "Odds Ratio", "setting": "mutation F53L in PR", "value": 4.91}, {"measurement": "Odds Ratio", "setting": "mutation F53Y in PR", "value": 10.44}, {"measurement": "Odds Ratio", "setting": "mutation F463S in gag", "value": 7.28}, {"measurement": "Odds Ratio", "setting": "mutation F463V in gag", "value": 2.29}, {"measurement": "Odds Ratio", "setting": "mutation F465L in gag", "value": 1.65}, {"measurement": "Odds Ratio", "setting": "mutation F465S in gag", "value": 2.17}, {"measurement": "Odds Ratio", "setting": "mutation G16A in PR", "value": 4.49}, {"measurement": "Odds Ratio", "setting": "mutation G73A in PR", "value": 5.85}, {"measurement": "Odds Ratio", "setting": "mutation G73C in PR", "value": 2.98}, {"measurement": "Odds Ratio", "setting": "mutation G73S in PR", "value": 2.69}, {"measurement": "Odds Ratio", "setting": "mutation G73T in PR", "value": 21.84}, {"measurement": "Odds Ratio", "setting": "mutation H69R in PR", "value": 3.98}, {"measurement": "Odds Ratio", "setting": "mutation H441Q in gag", "value": 3.05}, {"measurement": "Odds Ratio", "setting": "mutation I13V in PR", "value": 1.41}, {"measurement": "Odds Ratio", "setting": "mutation I47V in PR", "value": 98.74}, {"measurement": "Odds Ratio", "setting": "mutation I54A in PR", "value": 7.70}, {"measurement": "Odds Ratio", "setting": "mutation I54L in PR", "value": 8.74}, {"measurement": "Odds Ratio", "setting": "mutation I54M in PR", "value": 32.44}, {"measurement": "Odds Ratio", "setting": "mutation I54V in PR", "value": 2.67}, {"measurement": "Odds Ratio", "setting": "mutation I62V in PR", "value": 1.28}, {"measurement": "Odds Ratio", "setting": "mutation I66F in PR", "value": 4.19}, {"measurement": "Odds Ratio", "setting": "mutation I66V in PR", "value": 4.16}, {"measurement": "Odds Ratio", "setting": "mutation I72L in PR", "value": 3.51}, {"measurement": "Odds Ratio", "setting": "mutation I72V in PR", "value": 1.51}, {"measurement": "Odds Ratio", "setting": "mutation I84V in PR", "value": 58.10}, {"measurement": "Odds Ratio", "setting": "mutation I85V in PR", "value": 3.21}, {"measurement": "Odds Ratio", "setting": "mutation I437V in gag", "value": 3.51}, {"measurement": "Odds Ratio", "setting": "mutation I479T in gag", "value": 1.28}, {"measurement": "Odds Ratio", "setting": "mutation K20R in PR", "value": 2.41}, {"measurement": "Odds Ratio", "setting": "mutation K20T in PR", "value": 1.55}, {"measurement": "Odds Ratio", "setting": "mutation K20V in PR", "value": 4.43}, {"measurement": "Odds Ratio", "setting": "mutation K43T in PR", "value": 7.24}, {"measurement": "Odds Ratio", "setting": "mutation K55R in PR", "value": 4.17}, {"measurement": "Odds Ratio", "setting": "mutation L10F in PR", "value": 3.36}, {"measurement": "Odds Ratio", "setting": "mutation L10I in PR", "value": 1.95}, {"measurement": "Odds Ratio", "setting": "mutation L10V in PR", "value": 1.62}, {"measurement": "Odds Ratio", "setting": "mutation L19P in PR", "value": 6.49}, {"measurement": "Odds Ratio", "setting": "mutation L23I in PR", "value": 4.81}, {"measurement": "Odds Ratio", "setting": "mutation L24F in PR", "value": 11.71}, {"measurement": "Odds Ratio", "setting": "mutation L33F in PR", "value": 12.07}, {"measurement": "Odds Ratio", "setting": "mutation L63P in PR", "value": 1.10}, {"measurement": "Odds Ratio", "setting": "mutation L89I in PR", "value": 2.71}, {"measurement": "Odds Ratio", "setting": "mutation L89M in PR", "value": 1.95}, {"measurement": "Odds Ratio", "setting": "mutation L90M in PR", "value": 1.24}, {"measurement": "Odds Ratio", "setting": "mutation L449F in gag", "value": 1.46}, {"measurement": "Odds Ratio", "setting": "mutation L449V in gag", "value": 9.49}, {"measurement": "Odds Ratio", "setting": "mutation M36I in PR", "value": 1.48}, {"measurement": "Odds Ratio", "setting": "mutation M36L in PR", "value": 1.98}, {"measurement": "Odds Ratio", "setting": "mutation M46I in PR", "value": 2.32}, {"measurement": "Odds Ratio", "setting": "mutation M46L in PR", "value": 2.48}, {"measurement": "Odds Ratio", "setting": "mutation M423I in gag", "value": 2.07}, {"measurement": "Odds Ratio", "setting": "mutation N37D in PR", "value": 1.55}, {"measurement": "Odds Ratio", "setting": "mutation P79A in PR", "value": 18.04}, {"measurement": "Odds Ratio", "setting": "mutation P79S in PR", "value": 9.49}, {"measurement": "Odds Ratio", "setting": "mutation P453I in gag", "value": 4.11}, {"measurement": "Odds Ratio", "setting": "mutation P453V in gag", "value": 9.49}, {"measurement": "Odds Ratio", "setting": "mutation P459T in gag", "value": 2.53}, {"measurement": "Odds Ratio", "setting": "mutation Q58E in PR", "value": 4.49}, {"measurement": "Odds Ratio", "setting": "mutation Q61N in PR", "value": 5.22}, {"measurement": "Odds Ratio", "setting": "mutation Q92K in PR", "value": 7.78}, {"measurement": "Odds Ratio", "setting": "mutation R452K in gag", "value": 2.49}, {"measurement": "Odds Ratio", "setting": "mutation R452S in gag", "value": 2.87}, {"measurement": "Odds Ratio", "setting": "mutation S451T in gag", "value": 1.85}, {"measurement": "Odds Ratio", "setting": "mutation S462N in gag", "value": 2.19}, {"measurement": "Odds Ratio", "setting": "mutation S488A in gag", "value": 1.79}, {"measurement": "Odds Ratio", "setting": "mutation T4A in PR", "value": 9.49}, {"measurement": "Odds Ratio", "setting": "mutation T4P in PR", "value": 4.01}, {"measurement": "Odds Ratio", "setting": "mutation T4S in PR", "value": 8.07}, {"measurement": "Odds Ratio", "setting": "mutation T12P in PR", "value": 2.37}, {"measurement": "Odds Ratio", "setting": "mutation T74P in PR", "value": 27.85}, {"measurement": "Odds Ratio", "setting": "mutation T91S in PR", "value": 11.16}, {"measurement": "Odds Ratio", "setting": "mutation V11I in PR", "value": 23.10}, {"measurement": "Odds Ratio", "setting": "mutation V32I in PR", "value": 62.34}, {"measurement": "Odds Ratio", "setting": "mutation V82A in PR", "value": 1.98}, {"measurement": "Odds Ratio", "setting": "mutation V82C in PR", "value": 9.18}, {"measurement": "Odds Ratio", "setting": "mutation V82F in PR", "value": 11.71}, {"measurement": "Odds Ratio", "setting": "mutation V82I in PR", "value": 2.31}, {"measurement": "Odds Ratio", "setting": "mutation V82L in PR", "value": 6.33}, {"measurement": "Odds Ratio", "setting": "mutation V82T in PR", "value": 3.06}]}]}
